Test results as given in ChEMBL document CHEMBL5726342, “NMDA receptor modulators and uses related thereto” (2017).

Experiment: Inhibition Assay: Two-electrode voltage-clamp recordings were made from Xenopus laevis oocytes expressing recombinant rat GluN1/GluN2A, GluN1/GluN2B, GluN1/GluN2C, GluN1/GluN2D, GluA1, or GluK2 receptors following injection of 5-10 ng of cRNA synthesized according to manufacturers' protocols (Ambin, mMessage, mMachine). cDNAs used were rat GluN1-1a (GenBank accession numbers U11418 and U08261; hereafter GluN1), GluN2A (D13211), GluN2B (U11419), GluN2C (M91563), GluN2D (L31611), GluA1 (X17184), GluK2 (Z11548). The current under voltage-clamp was recorded during perfusion with recording solution containing (in mM) 90 NaCl, 1.0 KCl, 0.5 BaCl2, 0.005 EDTA, and 10 HEPES at pH 7.4 (23° C.). Glass micropipettes had resistances of 0.3-1.0 MS2 and were filled with 3.0 M KCl. The membrane potential was clamped at −40 mV during the experiment. Recordings were digitized at 10 Hz and analyzed off line. 20 mM stock solutions of test compounds in 100% DMSO were made and diluted to obtain the final concentration; final DMSO content was 0.05-0.5% (vol/vol). Oocytes expressing GluK2 homomeric receptors were first treated with 10 μM concanavalin A (10 minutes). NMDA receptor responses were obtained by challenging oocytes with 100 μM glutamate plus 30 μM glycine; GluA1 and GluK2 receptors responses were recorded during application of 100 μM glutamate. […]
Assay type: cell-based

Structure (SMILES)	IC50 [µM]
CCc1ccc(C2C(C(=O)c3ccncc3)=C(O)C(=O)N2CCc2c[nH]c3cc(C)ccc23)cc1 (configuration not stated)	9
CCc1ccc(C2C(C(=O)c3cccnc3)=C(O)C(=O)N2CCc2c[nH]c3cc(C)ccc23)cc1 (configuration not stated)	7
